Measurements reported in patent US12038432B2, “Organoids related to immunotherapy and methods of preparing and using the same” (Wake Forest University Health Sciences, priority 2018, dated 2024).
Entries after “also recorded” stand apart in the source; their conditions may differ.

Legend:
[1] = tested on: PTOs derived from a melanoma patient (Non-Responder); test: LIVE/DEAD imaging of tumor organoids derived from a non-responder melanoma patient; format: cell-based, human; conditions: FIG. 1C
Experimental: (§1) Drug screen output metrics: Drugs will be administered for 48 hours, after which efficacy will be determined as follows; specifically, viability of cells will be assessed by (LIVE/DEAD), number of viable cells alone, number of viable cells versus dead cells, mitochondrial metabolism (MTS), LDH quantification (positive in tumor cells), and IHC (colocalization of fluorescently labeled immune cells with apoptotic, proliferative, and tumor cell markers).

[2] = tested on: low-grade appendiceal tumor-node organoids; test: LIVE/DEAD imaging of appendiceal tumor organoids with and without node cells; format: cell-based, human; conditions: FIG. 1B; for LIVE/DEAD imaging, drug effectiveness: appendiceal tumor organoids with and without node cells; for cell death (LIVE/DEAD staining): low-grade appendiceal tumor-node organoids
Experimental: as §1

[3] = tested on: melanoma tumor organoid; test: Drug screen, cell viability of melanoma tumor organoid with or without lymph node cells (FIG. 5); format: cell-based, human; conditions: decrease observed only when the organoid included both tumor cells and lymph node cells
Experimental: Organoid-device integration: HA and gelatin/collagen components are mixed with cells, as well as a crosslinker and photoinitiator for photopolymerization in situ. Cells are added to the gel precursor preferably at a density of 20 million cells/mL or higher, after which the cell-gel mixture introduced to the microfluidic chambers sequentially and patterning is accomplished using a positive-tone photomask to define shape and location of constructs (FIG. 3B). For the proposed studies, each device will contain series of 2 chamber circuits in which one chamber will be formed a tumor organoid and in the other will be formed a lymph node organoid. Alternatively, both organoids can exist separately, but in the same chamber (FIG. 2). In another form factor, tumor cells and immune cells can be photopatterned into the device as adjacent regions, in which for the immune cells to successfully target the tumor cells, they are forced to recognize tumor cell antigens, activate, and migrate to the tumor region. (FIGS. 4A-4C). […]
Drug screen output metrics: Drug efficacy will be determined by: viability of cells (LIVE/DEAD), number of viable cells alone, number of viable cells versus dead cells, mitochondrial metabolism (MTS), LDH quantification (positive in tumor cells), and IHC (Annexin V vs. KI67-apoptotic vs. proliferative markers).

[4] = tested on: PTOs; test: Exposure of patient tumor organoids (PTOs) to immune checkpoint inhibitors, tolerance; format: cell-based; conditions: ~100 nM concentrations; unless immune cells are activated
Source text: Potential immune checkpoint inhibitor treatment. […] Concentrations of these two widely-used PD-1 inhibitors and one widely-used CTLA-4 inhibitor will be derived from clinical treatment guidelines and scaled to the volume of the PTO.

[5] = tested on: colorectal tumor-node organoids; test: Mitochondrial metabolism of colorectal patient tumor organoids with or without matched lymph node immune cells; format: cell-based, human; conditions: integrated colorectal tumor-node organoids; seen only when immune cells are present; FIG. 1A
Experimental: as §1, with “markers). […] This was not expected given the BRAF wild status of the patient. […] The alternative therapy was identified by PTO screen more than 4 weeks prior to genomic sequencing that verified a MEK mutation, thus qualifying the patient for trametinib.” for “markers).”

[6] = tested on: melanoma; test: Clinical response of melanoma patients to treatment; format: in vivo, human; conditions: stage III and IV melanoma patients of Example 7
[7] = tested on: 3D patient-specific mixed melanoma/node organoids; test: Personalized immunotherapy screening on mixed melanoma/node organoids (live/dead staining and metabolism assays); format: cell-based, human; conditions: fourth patient's mixed melanoma/node organoids; 72 hours
Source text: Methods: Surgically obtained matched melanoma and lymph node biospecimens from the same patient were transferred to the laboratory, washed with saline, antibiotic, and red blood cell lysis buffer. Biospecimens were dissociated, and incorporated into an ECM-based hydrogel system and biofabricated into 3D patient-specific mixed melanoma/node organoids. Cells were not sorted for tumor, as to preserve tumor heterogeneity, including stroma and immune cell components. […] Quantification of live/dead staining and metabolism assays, recorded relative drug efficacy in killing melanoma cells for a particular patient. Light microscopy, IHC and next generation sequencing (NGS) were used to compare tumor melanoma cells with organoid melanoma cells.

Substance	organoid response (LIVE/DEAD staining) [1]	LIVE/DEAD imaging, drug effectiveness [2]	cell death (LIVE/DEAD staining) [2]	organoid viability, measured by overall metabolic activity [3]	effect on the PTOs [4]	mitochondrial metabolism [5]	patient clinical response [6]	melanoma killing [7]	organoid response (LIVE/DEAD staining) ([1]; listed as dabrafenib and trametinib)
ipilimumab [ipilumimab]	did not respond	–	–	–	–	–	–	–	–
pembrolizumab	did not respond	effective only when immune cell (lymph) population was incorporated	increases in cell death	significant decrease	no negative effect	–	–	–	–
nivolumab	–	effective only when immune cell (lymph) population was incorporated	increases in cell death	significant decrease	no negative effect	an increase in mitochondrial metabolism; also recorded: Increased metabolism	clinically progressed	50%	–
dabrafenib and trametinib [dabrafenic/trametinib]	increased DEAD staining	–	–	–	–	–	–	–	did respond
